Drawing on article PMC9122626 (2020), this text covers binding, Ka and IC50 for one compound.

Molecules are shown by their SMILES.

Experiment [1] has as its system human telomeric G4 DNA, dAGGG(TTAGGG)3 (DNA, G4) AGGGTTAGGGTTAGGGTTAGGG
Description: time-resolved fluorescence (TCSPC). As to conditions: 100 mM Na+; 10 mM Tris, pH 7.3, 25 °C; 5.5 μM peptide; 0 to 10.5 μM G4.

Experiment [2] has the same test system. The experiment is described as follows: CD titration. As to conditions: Na+; aqueous buffer.
The test system is the same in experiment [3]. The experiment is described as follows: intrinsic fluorescence titration. As to conditions: 15 μM peptide; 0 to 18.16 μM G4; room temperature.
Experiment [4] has as its system ds26 (DNA, duplex) CAATCGGATCGAATTCGATCCGATTG
Description: ITC. As to conditions: Na+ 100 mM.

The test system of experiment [5] is human telomeric G4 DNA, dAGGG(TTAGGG)3 (DNA, G4) AGGGTTAGGGTTAGGGTTAGGG
Description: EMSA. As to conditions: 30 μM G4; room temperature; 15-120 μM peptide. On the technique in general: A gel shift assay detects complexes by their altered migration in electrophoresis.

Experiment [6] has the same test system. The experiment is described as follows: thiazole orange displacement (fluorescence). As to conditions: 298 K; thiazole orange displaced; 0.25 μM G4, 0.50 μM TO.
For experiment [7] the test system is unchanged. Description: ITC. As to conditions: Na+ 100 mM; 298.15 K; 64 μM DNA in cell, 700 μM peptide in syringe.

With `N[C@@H](Cc1ccc(O)cc1)C(=O)N[C@@H](CCC(=O)N[C@@H](CCC(=O)O)C(=O)O)C(=O)N[C@@H](CCC(=O)O)C(=O)O` (racemic), the binding entry in experiment [1], in experiment [2], in experiment [3] and in experiment [5] was “yes” throughout. The results for the Ka in experiment [4] and in experiment [7] were 9600 M⁻¹ and 1.1e+06 M⁻¹, respectively. Also, the IC50 in experiment [6] was ~ 8.4 μM.
